Assay results taken from ChEMBL document CHEMBL5715943, “Design and synthesis of potent and selective azaindole-based Rho kinase (ROCK) inhibitors” (ChemMedChem, 2008).

Experiments:
[1] = biological target: Rho-associated protein kinase 2 (Homo sapiens, UniProt O75116); assay: Inhibition of His-tagged human ROCK2 expressed in Sf9 cells pre-incubated for 10 mins before S6 peptide substrate addition in presence of [33P]ATP and measured after 20 mins by scintillation counting
[2] = tested on: Saphenous artery; assay: Vasorelaxant activity in isolated Chinchilla rabbit saphenous artery vessels assessed as inhibition of phenylephrine-mediated contraction; type: functional, tissue-based; conditions: Oryctolagus cuniculus
[3] = buffer
[4] = tested on: Rattus norvegicus; assay: Anti-hypertensive effect in anaesthetized Wistar rat assessed as blood-pressure-lowering effect at 3 mg/kg, iv relative to control; type: functional
[5] = in vivo; conditions: Wistar, rat, iv, 0.5 mg/kg
[6] = in vivo; conditions: Wistar, rat, iv, 0.5 mg/kg; remark: listed apart in the source
[7] = in vivo; conditions: Wistar, rat, po, 1 mg/kg
[8] = tested on: Rattus norvegicus; assay: Anti-hypertensive effect in anaesthetized Wistar rat assessed as blood-pressure-lowering effect at 0.3 mg/kg, iv relative to control; type: functional
[9] = biological target: Myosin light chain kinase, smooth muscle (Homo sapiens, UniProt Q15746); assay: Inhibition of MYLK (unknown origin)
Chain of Myosin light chain kinase, smooth muscle (Q15746 whole entry): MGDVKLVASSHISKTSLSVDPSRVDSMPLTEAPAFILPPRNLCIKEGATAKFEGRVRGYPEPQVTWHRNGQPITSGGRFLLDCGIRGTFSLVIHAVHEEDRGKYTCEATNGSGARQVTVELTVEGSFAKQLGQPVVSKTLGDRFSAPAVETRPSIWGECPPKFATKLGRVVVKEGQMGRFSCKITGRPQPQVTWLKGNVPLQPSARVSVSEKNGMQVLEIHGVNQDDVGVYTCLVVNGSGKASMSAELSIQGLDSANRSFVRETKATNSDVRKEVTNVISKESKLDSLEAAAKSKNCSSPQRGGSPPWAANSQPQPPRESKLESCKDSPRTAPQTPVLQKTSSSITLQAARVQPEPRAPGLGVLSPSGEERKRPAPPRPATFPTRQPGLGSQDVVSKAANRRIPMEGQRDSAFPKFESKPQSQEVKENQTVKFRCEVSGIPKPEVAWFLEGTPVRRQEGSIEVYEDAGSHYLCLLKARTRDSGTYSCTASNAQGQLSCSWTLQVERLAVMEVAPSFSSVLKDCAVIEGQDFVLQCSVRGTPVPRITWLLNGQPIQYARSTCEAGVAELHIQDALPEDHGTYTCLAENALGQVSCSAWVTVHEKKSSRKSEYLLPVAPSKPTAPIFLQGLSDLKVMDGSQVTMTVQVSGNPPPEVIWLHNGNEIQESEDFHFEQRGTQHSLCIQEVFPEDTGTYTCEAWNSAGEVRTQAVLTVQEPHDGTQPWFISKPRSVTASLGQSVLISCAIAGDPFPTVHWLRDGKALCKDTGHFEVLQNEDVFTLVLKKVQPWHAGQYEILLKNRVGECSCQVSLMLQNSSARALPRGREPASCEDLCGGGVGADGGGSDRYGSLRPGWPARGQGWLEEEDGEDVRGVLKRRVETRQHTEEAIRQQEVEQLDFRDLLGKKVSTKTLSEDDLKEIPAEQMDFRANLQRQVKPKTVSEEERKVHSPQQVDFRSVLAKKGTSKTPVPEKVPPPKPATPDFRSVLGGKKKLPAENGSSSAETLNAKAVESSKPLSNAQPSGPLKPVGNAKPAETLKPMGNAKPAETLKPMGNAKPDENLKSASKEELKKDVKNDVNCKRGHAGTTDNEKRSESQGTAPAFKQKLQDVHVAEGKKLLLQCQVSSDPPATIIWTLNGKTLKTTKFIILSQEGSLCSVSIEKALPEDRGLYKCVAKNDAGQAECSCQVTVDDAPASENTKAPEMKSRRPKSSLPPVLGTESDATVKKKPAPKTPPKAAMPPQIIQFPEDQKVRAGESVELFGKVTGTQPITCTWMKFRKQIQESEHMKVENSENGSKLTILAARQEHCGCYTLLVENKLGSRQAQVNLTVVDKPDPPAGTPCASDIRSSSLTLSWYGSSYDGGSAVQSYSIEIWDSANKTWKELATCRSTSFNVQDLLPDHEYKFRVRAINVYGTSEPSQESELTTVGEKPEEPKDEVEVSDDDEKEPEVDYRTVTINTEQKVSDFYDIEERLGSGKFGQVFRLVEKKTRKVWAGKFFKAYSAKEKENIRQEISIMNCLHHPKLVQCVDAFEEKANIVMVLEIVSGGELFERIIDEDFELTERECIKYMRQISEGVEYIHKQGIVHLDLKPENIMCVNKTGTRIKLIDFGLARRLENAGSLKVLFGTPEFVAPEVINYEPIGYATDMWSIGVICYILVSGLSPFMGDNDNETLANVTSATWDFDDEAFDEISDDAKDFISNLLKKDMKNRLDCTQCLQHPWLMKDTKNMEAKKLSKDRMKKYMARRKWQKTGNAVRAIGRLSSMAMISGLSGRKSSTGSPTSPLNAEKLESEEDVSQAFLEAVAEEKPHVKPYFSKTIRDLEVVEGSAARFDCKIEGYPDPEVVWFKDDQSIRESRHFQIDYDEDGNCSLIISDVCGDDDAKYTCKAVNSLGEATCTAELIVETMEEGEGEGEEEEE

[10] = biological target: T1, Tyrosine-protein kinase receptor UFO (Homo sapiens, UniProt P30530); assay: Inhibition of human AXL
T1 sequence (P30530 whole entry): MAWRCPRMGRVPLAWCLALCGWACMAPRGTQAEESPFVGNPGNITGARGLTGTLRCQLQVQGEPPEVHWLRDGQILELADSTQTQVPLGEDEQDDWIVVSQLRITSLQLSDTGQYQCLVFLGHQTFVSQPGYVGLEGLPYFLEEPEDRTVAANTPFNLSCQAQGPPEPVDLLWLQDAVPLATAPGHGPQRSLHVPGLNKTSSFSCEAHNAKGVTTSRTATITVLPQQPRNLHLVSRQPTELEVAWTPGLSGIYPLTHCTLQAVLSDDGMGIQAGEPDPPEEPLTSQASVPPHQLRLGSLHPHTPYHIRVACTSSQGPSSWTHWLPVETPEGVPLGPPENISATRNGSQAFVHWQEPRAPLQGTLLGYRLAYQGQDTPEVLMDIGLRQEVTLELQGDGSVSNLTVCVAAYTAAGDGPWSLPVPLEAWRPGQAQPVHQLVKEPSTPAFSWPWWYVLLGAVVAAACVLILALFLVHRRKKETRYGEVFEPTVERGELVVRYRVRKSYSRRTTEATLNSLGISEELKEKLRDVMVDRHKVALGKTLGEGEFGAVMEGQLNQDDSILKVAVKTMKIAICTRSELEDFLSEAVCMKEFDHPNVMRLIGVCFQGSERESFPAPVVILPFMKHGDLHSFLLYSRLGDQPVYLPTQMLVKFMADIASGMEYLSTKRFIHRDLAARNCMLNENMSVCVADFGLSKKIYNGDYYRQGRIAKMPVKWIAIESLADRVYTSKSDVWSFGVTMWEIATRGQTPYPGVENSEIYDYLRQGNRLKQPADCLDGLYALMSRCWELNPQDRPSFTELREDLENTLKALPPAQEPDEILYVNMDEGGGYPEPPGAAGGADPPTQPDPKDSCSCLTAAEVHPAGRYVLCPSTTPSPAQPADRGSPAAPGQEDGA

[11] = biological target: RAF proto-oncogene serine/threonine-protein kinase (Homo sapiens, UniProt P04049); assay: Inhibition of human c-RAF
Chain of RAF proto-oncogene serine/threonine-protein kinase (P04049 whole entry): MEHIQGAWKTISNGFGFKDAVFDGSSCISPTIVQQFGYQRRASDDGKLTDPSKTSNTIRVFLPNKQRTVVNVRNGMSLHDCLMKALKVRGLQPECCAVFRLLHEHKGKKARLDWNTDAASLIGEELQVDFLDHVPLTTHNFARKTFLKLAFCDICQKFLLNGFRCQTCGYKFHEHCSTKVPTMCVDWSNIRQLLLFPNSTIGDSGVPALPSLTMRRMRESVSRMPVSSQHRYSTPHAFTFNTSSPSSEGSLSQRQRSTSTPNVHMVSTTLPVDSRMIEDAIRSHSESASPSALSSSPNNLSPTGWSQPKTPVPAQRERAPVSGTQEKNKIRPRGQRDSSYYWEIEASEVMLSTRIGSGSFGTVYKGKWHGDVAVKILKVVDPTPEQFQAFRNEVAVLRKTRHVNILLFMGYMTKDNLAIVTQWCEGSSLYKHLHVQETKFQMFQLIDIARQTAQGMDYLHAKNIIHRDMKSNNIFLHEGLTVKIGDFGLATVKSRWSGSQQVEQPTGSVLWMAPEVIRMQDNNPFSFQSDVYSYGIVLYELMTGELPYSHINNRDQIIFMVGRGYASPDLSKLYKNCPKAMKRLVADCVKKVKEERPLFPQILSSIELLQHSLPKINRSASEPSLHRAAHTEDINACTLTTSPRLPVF

[12] = biological target: Voltage-gated L-type calcium channel (Homo sapiens, UniProt Q13936+Q13698+Q01668+O60840); assay: Inhibition of L-type calcium channel (unknown origin); type: protein assay
[13] = Inhibition of sodium channel (unknown origin); parameters: species or system Homo sapiens
[14] = biological target: Voltage-gated inwardly rectifying potassium channel KCNH2 (Homo sapiens, UniProt Q12809); assay: Inhibition of human ERG channel assessed as reduction in K+ current by whole-cell voltage-clamp assay; type: toxicity
Chain of Voltage-gated inwardly rectifying potassium channel KCNH2 (Q12809 whole entry): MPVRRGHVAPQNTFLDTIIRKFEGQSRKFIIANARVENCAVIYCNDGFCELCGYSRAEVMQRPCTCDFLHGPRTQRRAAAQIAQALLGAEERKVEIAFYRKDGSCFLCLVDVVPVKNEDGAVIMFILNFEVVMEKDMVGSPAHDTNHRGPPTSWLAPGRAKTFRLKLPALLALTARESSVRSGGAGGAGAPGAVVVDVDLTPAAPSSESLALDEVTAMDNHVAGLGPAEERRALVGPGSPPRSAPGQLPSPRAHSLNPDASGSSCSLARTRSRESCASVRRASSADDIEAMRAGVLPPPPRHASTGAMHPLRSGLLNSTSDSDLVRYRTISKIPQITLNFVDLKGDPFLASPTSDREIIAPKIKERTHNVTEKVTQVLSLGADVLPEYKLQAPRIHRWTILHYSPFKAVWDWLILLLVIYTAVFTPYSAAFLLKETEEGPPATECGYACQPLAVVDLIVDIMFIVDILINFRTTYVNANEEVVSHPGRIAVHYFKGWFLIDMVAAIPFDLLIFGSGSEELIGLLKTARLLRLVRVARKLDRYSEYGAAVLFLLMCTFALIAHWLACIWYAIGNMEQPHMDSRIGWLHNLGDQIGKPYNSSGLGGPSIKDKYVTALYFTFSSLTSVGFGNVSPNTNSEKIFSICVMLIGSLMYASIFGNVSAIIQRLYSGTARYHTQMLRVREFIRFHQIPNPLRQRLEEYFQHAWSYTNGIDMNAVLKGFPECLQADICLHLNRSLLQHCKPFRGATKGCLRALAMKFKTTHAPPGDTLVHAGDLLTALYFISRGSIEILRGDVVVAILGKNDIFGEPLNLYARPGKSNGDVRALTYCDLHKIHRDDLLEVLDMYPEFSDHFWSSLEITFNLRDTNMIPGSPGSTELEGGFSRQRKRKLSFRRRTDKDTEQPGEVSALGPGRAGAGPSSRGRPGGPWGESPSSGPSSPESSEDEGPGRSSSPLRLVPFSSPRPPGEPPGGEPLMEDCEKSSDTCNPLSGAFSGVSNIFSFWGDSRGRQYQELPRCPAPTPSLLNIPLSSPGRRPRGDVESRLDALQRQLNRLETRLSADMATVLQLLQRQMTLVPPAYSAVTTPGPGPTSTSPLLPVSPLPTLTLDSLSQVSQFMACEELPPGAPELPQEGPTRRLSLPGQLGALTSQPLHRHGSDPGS

Chain of Rho-associated protein kinase 2 (O75116 whole entry): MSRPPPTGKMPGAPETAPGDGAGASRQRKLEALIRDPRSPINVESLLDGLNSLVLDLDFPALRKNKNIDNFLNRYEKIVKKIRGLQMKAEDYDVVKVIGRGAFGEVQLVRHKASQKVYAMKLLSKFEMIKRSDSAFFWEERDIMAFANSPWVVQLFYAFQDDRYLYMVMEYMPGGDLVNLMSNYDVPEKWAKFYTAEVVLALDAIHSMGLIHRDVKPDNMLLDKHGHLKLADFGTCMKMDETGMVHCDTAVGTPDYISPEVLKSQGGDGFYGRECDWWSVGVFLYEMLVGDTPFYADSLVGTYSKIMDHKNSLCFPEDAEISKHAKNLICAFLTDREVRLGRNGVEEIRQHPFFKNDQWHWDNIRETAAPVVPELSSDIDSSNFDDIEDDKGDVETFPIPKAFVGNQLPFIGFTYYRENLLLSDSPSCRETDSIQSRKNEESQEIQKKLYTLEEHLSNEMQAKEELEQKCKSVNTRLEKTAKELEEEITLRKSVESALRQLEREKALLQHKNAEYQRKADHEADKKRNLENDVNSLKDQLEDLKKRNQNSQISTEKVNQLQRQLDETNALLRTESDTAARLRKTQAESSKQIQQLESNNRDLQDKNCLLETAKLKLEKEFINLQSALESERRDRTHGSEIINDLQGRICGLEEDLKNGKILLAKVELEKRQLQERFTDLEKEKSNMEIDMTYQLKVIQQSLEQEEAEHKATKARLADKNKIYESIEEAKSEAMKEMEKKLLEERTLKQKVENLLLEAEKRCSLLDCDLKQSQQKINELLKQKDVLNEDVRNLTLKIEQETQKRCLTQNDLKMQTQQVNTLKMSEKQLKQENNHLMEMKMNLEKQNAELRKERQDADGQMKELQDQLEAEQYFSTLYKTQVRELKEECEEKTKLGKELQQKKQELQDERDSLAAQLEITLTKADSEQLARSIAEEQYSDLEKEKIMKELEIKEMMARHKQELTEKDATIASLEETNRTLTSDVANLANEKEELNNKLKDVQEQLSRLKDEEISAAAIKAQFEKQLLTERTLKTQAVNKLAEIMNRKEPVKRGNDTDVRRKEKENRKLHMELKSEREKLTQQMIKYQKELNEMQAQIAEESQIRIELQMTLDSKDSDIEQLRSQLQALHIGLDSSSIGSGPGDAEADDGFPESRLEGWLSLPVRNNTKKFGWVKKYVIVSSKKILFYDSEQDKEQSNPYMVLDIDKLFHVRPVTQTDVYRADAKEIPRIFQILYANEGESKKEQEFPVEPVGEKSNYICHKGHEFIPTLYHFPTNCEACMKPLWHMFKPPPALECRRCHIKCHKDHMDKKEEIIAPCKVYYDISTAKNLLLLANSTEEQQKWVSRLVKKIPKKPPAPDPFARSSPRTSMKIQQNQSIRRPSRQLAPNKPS

SMILES	IC50 [1]	IC50 [2]	also measured
N#Cc1c[nH]c2nccc(Oc3c(F)cc(Nc4ccnc(N)n4)cc3F)c12	0.9 nM	20 nM	solubility [3]: Insoluble
Nc1nc(Nc2ccc(Oc3ccnc4[nH]ccc34)c(F)c2)cc(-c2ccncc2)n1	–	270 nM	Activity [4]: 65 mmHg; clearance [5]: 88.3 mL/min/kg; half-life [6]: 18 min; bioavailability [7]: 18%
Cc1c[nH]c2nccc(Oc3ccc(Nc4cc(Cl)nc(N)n4)cc3F)c12	–	100 nM	–
Nc1nc(Nc2ccc(Oc3ccnc4[nH]ccc34)c(F)c2)cc(C2CCCNC2)n1 (centres undefined)	–	230 nM	–
Cc1cc(Nc2ccc(Sc3ccncc3)c(F)c2)nc(N)n1	90 nM	–	–
Nc1nc(Nc2ccc(Sc3ccncc3)c(F)c2)cc(-c2ccncc2)n1	11 nM	500 nM	–
Nc1nc(Cl)cc(Nc2ccc(Oc3ccnc4[nH]ccc34)c(F)c2)n1	9 nM	1100 nM	–
Nc1nccc(Nc2ccc(Oc3ccnc4[nH]ccc34)c(F)c2)n1	17 nM	1500 nM	–
Cc1cc(Nc2ccc(Oc3ccnc4[nH]ccc34)c(F)c2)nc(N)n1	11 nM	1700 nM	–
Nc1nc(Nc2ccc(Oc3ccnc4[nH]ccc34)c(F)c2)cc(-c2ccccn2)n1	7 nM	460 nM	–
Nc1nc(Nc2ccc(Oc3ccnc4[nH]ccc34)c(F)c2)cc(-c2cccnc2)n1	10 nM	370 nM	–
Nc1nc(Nc2ccc(Oc3cccc4[nH]ncc34)c(F)c2)cc(-c2ccncc2)n1	380 nM	–	–
Cc1c[nH]c2nccc(Oc3c(F)cc(Nc4ccnc(N)n4)cc3F)c12	2 nM	56 nM	clearance [5]: 26.7 mL/min/kg; half-life [6]: 54 min
CCc1c[nH]c2nccc(Oc3ccc(Nc4cc(-c5ccncc5)nc(N)n4)cc3F)c12	8 nM	1200 nM	–
Nc1nc(Nc2ccc(Oc3ccnc4[nH]ccc34)c(F)c2)cc(N2CCNCC2)n1	6 nM	410 nM	–
Nc1nc(Nc2cc(F)c(Oc3ccnc4[nH]cc(Cl)c34)c(F)c2)cc(C(F)(F)F)n1	2 nM	82 nM	solubility [3]: Insoluble
Nc1nc(Nc2ccc(Oc3cccc4[nH]ccc34)c(F)c2)cc(-c2ccncc2)n1	> 3000 nM	–	–
Nc1nc(Nc2ccc(Oc3ccnc4[nH]ncc34)c(F)c2)cc(-c2ccncc2)n1	> 3000 nM	–	–
Nc1nc(Nc2ccc(Oc3ccnc4[nH]ccc34)c(F)c2)cc(C(F)(F)F)n1	7 nM	710 nM	–
Cc1c[nH]c2nccc(Oc3ccc(Nc4ccnc(N)n4)cc3F)c12	4 nM	84 nM	clearance [5]: 35 mL/min/kg; half-life [6]: 30 min
Nc1nc(Nc2ccc(Oc3cccc4cnccc34)c(F)c2)cc(-c2ccncc2)n1	200 nM	–	–
Nc1nc(Nc2ccc(Oc3ccnc4[nH]ccc34)c(F)c2)cc(C2CCNCC2)n1	2 nM	570 nM	–
Cc1c[nH]c2nccc(Oc3ccc(Nc4cc(-c5ccncc5)nc(N)n4)cc3F)c12	3 nM	89 nM	Activity [4]: 70 mmHg
Nc1nc(Nc2ccc(Oc3ccnc4[nH]ccc34)c(F)c2)cc(N2CCCC2)n1	16 nM	940 nM	–
Cc1cc(Nc2ccc(Sc3ccncc3)cc2)nc(N)n1	800 nM	–	–
Cc1n[nH]c2cccc(Oc3ccc(Nc4cc(-c5ccncc5)nc(N)n4)cc3F)c12	–	6800 nM	–
Cc1c[nH]c2nccc(Oc3c(F)cc(Nc4cc(Cl)nc(N)n4)cc3F)c12 [BAY-549]	–	65 nM	Activity [8]: 35 mmHg; IC50 [9]: 7400 nM; IC50 [10]: 1000 nM; IC50 [11]: 1000 nM; IC50 [12]: 6700 nM; IC50 [13]: 6800 nM; inhibition (INH) [14]: Not Active; clearance [5]: 28.3 mL/min/kg; half-life [6]: 72 min; bioavailability [7]: 48%
